From patent US20110269721A1, “METHODS OF TREATING THALASSEMIA” (TargeGen, Inc., priority 2008, published 2011)

Assays:
[1] = test system: purified erythroid cells isolated from the spleens of normal and thalassemic mice; experiment: Primary splenic erythroid cell cultures with CFSE staining (cell proliferation); format: cell-based, mouse; settings: for CFSE FACS profile versus untreated cells: erythroid cells from wt mice, FIG. 2A legend, n=4 per genotype; for effect on cell proliferation of erythroid cultures (CFSE): erythroid cultures from thalassemic mice, AG490 100 uM, FIG. 2A; for total cell number as % of the initial cell numbers: 48 h in culture with Epo, with colcemid, n=4
Protocol: Spleens from […] were harvested and mechanically dissociated into single cell suspensions. Murine mononuclear cells were then isolated by centrifugation using Lympholyte-M density gradients (Cedarlane Laboratories Ltd, Westbury, N.Y.) following the manufacturer's instructions. Cells were incubated on ice for 15 minutes with a cocktail containing 10 μg each of non-erythroid FITCconjugated antibodies (GR-1, MAC1, CD4, CD8, CD11b, and CD49) (BD PharMingen). After washing, the cells were incubated for 15 minutes at 4° C. with anti-FITC microbeads (Miltenyi Biotech, Auburn, Calif.). The cell suspension was placed on a magnetic column and the eluted erythroid cells were kept for RNA extraction, protein analysis, in vitro culture with carboxy-fluorescein diacetate succinimidyl ester (CFSE; MolecularProbes, Eugene, Oreg.) staining or flow cytometric analysis. CFSE was added to the cells to give a final concentration of 1.25 uM. After 10 minutes at 37° C., further dye uptake was prevented by addition of 5 volumes of cold medium and incubated in ice for 5 minutes. The cells were then washed three times and seeded at 1×10^7 cells/ml in IMDM with 30% FBS (Hyclone, South Logan, Utah 84321), 1% deionized BSA, 100 IU/ml of penicillin, 100 ug/mL of streptomycin (Mediatech, Manassas, Va.), […] beta-thioglycerol (mTG; Sigma-Aldrich), and […] rHuEpo (10 U/ml; Amgen Mfg. Ltd. Thousand Oaks, Calif.). […] In order to visualize cell division, the cultured erythroid cells were stained with CFSE. Once the dye is inside the cell, it binds to cytoskeletal proteins and is divided equally between daughter cells. Thus, it is possible to determine if cells are dividing by monitoring the reduction of CFSE fluorescence (FIG. 2A).

[2] = test system: normal and thalassemic mice; experiment: In vivo administration of Jak2 inhibitor to normal and thalassemic mice; design: species or system mouse
Text: Mouse models that mimic beta-thalassemia intermedia (th3/+) and major (th3/th3) were used. (Rivella, S. et al, A novel murine model of Cooley anemia and its rescue by lentiviral mediated human beta globin gene transfer. Blood (2003) 101: 2932-2939, hereby incorporated by reference.) In th3/+ mice both the betaminor and betamajor gens have been deleted from one chromosome. Mice completely lacking adult beta-globin (th3/th3) die late in gestation. To circumvent this problem, bone marrow transplantation is conducted wherein hematopoietic fetal liver cells (HFLCs) were harvested from th3/th3 embryos at embryonic day 14.5 (E14.5) and injected into lethally irradiated syngeneic wild-type (wt) adult recipients.
Compound A, a Jak2 inhibitor, was administered to cohorts of normal and thalassemic mice of different ages. […] These observations indicate that the main role of pJak2 is to propel the erythropoietic drive.

Row | SMILES | CFSE FACS profile versus untreated cells [1] | effect on cell proliferation of erythroid cultures (CFSE) [1] | total cell number as % of the initial cell numbers ([1]; th3/+ erythroid cells) | total cell number as % of the initial cell numbers ([1]; th3/th3 erythroid cells) | total cell number as % of the initial cell numbers ([1]; wt erythroid cells) | spleen size ([2]; 6- and 12-week old thalassemic mice, 10 and 18 days of treatment) | Hb levels ([2]; thalassemic mice, 10 and 18 days of treatment) | erythropoiesis and size of the spleen ([2]; young normal animals)
1 | N#C/C(=C/c1ccc(O)c(O)c1)C(=O)NCc1ccccc1 [AG490] | little difference from untreated cells | blocking cell proliferation | – | – | – | – | – | –
2 | CN[C@H]1CCc2cc(OC)c(OC)c(OC)c2-c2ccc(OC)c(=O)cc21 [colcemid] | little difference from untreated cells | – | 88±18% | 72±25% | 46±9% | – | – | –
3 | Cc1cnc(Nc2ccc(N3CCN(C)CC3)cc2)nc1Nc1cccc(S(=O)(=O)NC(C)(C)C)c1 [compound A] | – | blocking cell proliferation | – | – | – | dramatically reduced | decreasing Hb levels | affected both erythropoiesis and the size of the spleen
